pIC50: −log10 of the molar value.
Target: T1, human TRPV4 (Homo sapiens, UniProt Q9HBA0)
T1 construct: expressed in transfected cells; host or cells: BHK/AC9 cells transduced with BacMam virus
Test: FLIPR assay for hTRPV4 expressed in BHK cells: inhibition of Agonist Compound-induced calcium signal
Format: cell-based
Settings: hTRPV4 in BHK/AC9 cells, FLIPR calcium signal, agonist at EC80; reported as range class; read-out: IC50
Method: FLIPR Assay for hTRPV4 Expressed in BHK Cells:
TRPV4 channel activation results in an influx of divalent and monovalent cations including calcium. The resulting changes in intracellular calcium were monitored using a calcium specific fluorescent dye Fluo-4 (MDS Analytical Technologies). BHK/AC9 cells transduced with BacMam virus expressing the human TRPV4 gene at a MOI of 78 were plated in a 384 well poly-D lysine coated plate (15,000 cells/well in 50 μL culture medium containing DMEM/F12 with 15 mM HEPES, 10% FBS, 1% Penicillin-Streptomycin and 1% L-glutamine). Cells were incubated for 24 hours at 37° C. and 5% CO2. Culture medium was then aspirated using a Tecan plate-washer and replaced with 20 μL/well of dye loading buffer: HBSS, 500 μM Brilliant Black (MDS Analytical Technologies), and 2 μM Fluo-4 AM. Dye loaded plates were then incubated in the dark at room temperature for 1-1.5 hours.

T1 sequence (Q9HBA0 whole entry): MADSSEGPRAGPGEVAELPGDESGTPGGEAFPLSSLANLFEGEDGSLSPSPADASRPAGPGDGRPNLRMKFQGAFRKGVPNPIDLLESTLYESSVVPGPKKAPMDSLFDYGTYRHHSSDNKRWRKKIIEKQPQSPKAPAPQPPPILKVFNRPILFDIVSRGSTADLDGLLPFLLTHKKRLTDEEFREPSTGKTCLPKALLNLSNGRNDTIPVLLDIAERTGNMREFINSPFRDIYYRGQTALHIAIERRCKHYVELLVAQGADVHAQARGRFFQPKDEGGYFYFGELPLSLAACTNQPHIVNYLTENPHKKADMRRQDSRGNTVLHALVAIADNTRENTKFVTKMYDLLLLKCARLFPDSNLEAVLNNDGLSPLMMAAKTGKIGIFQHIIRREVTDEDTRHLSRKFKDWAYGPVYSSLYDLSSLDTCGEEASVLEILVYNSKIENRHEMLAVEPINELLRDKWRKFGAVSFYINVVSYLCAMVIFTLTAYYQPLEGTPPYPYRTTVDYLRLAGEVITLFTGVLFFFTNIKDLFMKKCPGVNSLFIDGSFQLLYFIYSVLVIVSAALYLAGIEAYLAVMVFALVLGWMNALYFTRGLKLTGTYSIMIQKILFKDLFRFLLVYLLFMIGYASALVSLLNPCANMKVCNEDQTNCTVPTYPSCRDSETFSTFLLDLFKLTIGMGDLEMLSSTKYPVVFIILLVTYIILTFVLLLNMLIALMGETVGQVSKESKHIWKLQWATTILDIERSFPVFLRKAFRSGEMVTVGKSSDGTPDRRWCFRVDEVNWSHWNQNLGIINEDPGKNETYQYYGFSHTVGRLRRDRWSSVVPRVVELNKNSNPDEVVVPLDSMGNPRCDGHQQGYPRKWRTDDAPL

SMILES	pIC50
N#Cc1cc(C(F)(F)F)ccc1S(=O)(=O)N1C[C@H](Oc2ccc(C(F)(F)F)nc2)[C@](O)(CO)C1 [Example 42, 2-(((3R,4S)-3-hydroxy-3-(hydroxymethyl)-4-((6-(trifluoromethyl)pyridin-3-yl)oxy)pyrrolidin-1-yl)sulfonyl)-5-(trifluoromethyl)benzonitrile]	7.00 to 8.00
COc1ccc(O[C@H]2CN(S(=O)(=O)c3ccc(C(F)(F)F)cc3C#N)C[C@@]2(O)CO)cc1F [Example 43, 2-(((3R,4S)-4-(3-fluoro-4-methoxyphenoxy)-3-hydroxy-3-(hydroxymethyl)pyrrolidin-1-yl)sulfonyl)-5-(trifluoromethyl)benzonitrile]	7.00 to 8.00
N#Cc1cc(C(F)(F)F)ccc1S(=O)(=O)N1C[C@H](Oc2ccccc2)[C@](O)(CO)C1 [Example 46, 2-(((3R,4S)-3-hydroxy-3-(hydroxymethyl)-4-phenoxypyrrolidin-1-yl)sulfonyl)-5-(trifluoromethyl)benzonitrile]	7.00 to 8.00
N#Cc1cc(C(F)(F)F)ccc1S(=O)(=O)N1C[C@H](Oc2ccc(F)cc2)[C@](O)(CO)C1 [Example 47, 2-(((3R,4S)-4-(4-fluorophenoxy)-3-hydroxy-3-(hydroxymethyl)pyrrolidin-1-yl)sulfonyl)-5-(trifluoromethyl)benzonitrile]	7.00 to 8.00
COc1cc(Cl)ccc1O[C@H]1CN(S(=O)(=O)c2ccc(C(F)(F)F)cc2C#N)C[C@@]1(O)CO [Example 48, 2-(((3R,4S)-4-(4-chloro-2-methoxyphenoxy)-3-hydroxy-3-(hydroxymethyl)pyrrolidin-1-yl)sulfonyl)-5-(trifluoromethyl)benzonitrile]	7.00 to 8.00
N#Cc1ccc(O[C@H]2CN(S(=O)(=O)c3ccc(C(F)(F)F)cc3Cl)C[C@@]2(O)CO)cc1 [Example 49, 4-(((3S,4R)-1-((2-chloro-4-(trifluoromethyl)phenyl)sulfonyl)-4-hydroxy-4-(hydroxymethyl)pyrrolidin-3-yl)oxy)benzonitrile]	7.00 to 8.00
Cc1ccc(O[C@H]2CN(S(=O)(=O)c3ccc(C(F)(F)F)cc3C#N)C[C@@]2(O)CO)cc1 [Example 51, 2-(((3R,4S)-3-hydroxy-3-(hydroxymethyl)-4-(p-tolyloxy)pyrrolidin-1-yl)sulfonyl)-5-(trifluoromethyl)benzonitrile]	7.00 to 8.00
COc1ccc(O[C@H]2CN(S(=O)(=O)c3ccc(C(F)(F)F)cc3C#N)C[C@@]2(O)CO)cc1 [Example 52, 2-(((3R,4S)-3-hydroxy-3-(hydroxymethyl)-4-(4-methoxyphenoxy)pyrrolidin-1-yl)sulfonyl)-5-(trifluoromethyl)benzonitrile]	7.00 to 8.00
N#Cc1cccc(O[C@H]2CN(S(=O)(=O)c3ccc(C(F)(F)F)cc3C#N)C[C@@]2(O)CO)c1 [Example 53, 2-(((3R,4S)-4-(3-cyanophenoxy)-3-hydroxy-3-(hydroxymethyl)pyrrolidin-1-yl)sulfonyl)-5-(trifluoromethyl)benzonitrile]	7.00 to 8.00
COc1ccc(C#N)cc1O[C@H]1CN(S(=O)(=O)c2ccc(C(F)(F)F)cc2C#N)C[C@@]1(O)CO [Example 54, 2-(((3R,4S)-4-(5-cyano-2-methoxyphenoxy)-3-hydroxy-3-(hydroxymethyl)pyrrolidin-1-yl)sulfonyl)-5-(trifluoromethyl)benzonitrile]	7.00 to 8.00
N#Cc1cc(C(F)(F)F)ccc1S(=O)(=O)N1C[C@H](Oc2cnc(C(F)(F)F)nc2)[C@](O)(CO)C1 [Example 55, 2-(((3R,4S)-3-hydroxy-3-(hydroxymethyl)-4-((2-(trifluoromethyl)pyrimidin-5-yl)oxy)pyrrolidin-1-yl)sulfonyl)-5-(trifluoromethyl)benzonitrile]	7.00 to 8.00
N#Cc1ccccc1S(=O)(=O)N1C[C@H](Oc2ccc(C(F)(F)F)cc2)[C@](O)(CO)C1 [Example 56, 2-(((3R,4S)-3-hydroxy-3-(hydroxymethyl)-4-(4-(trifluoromethyl)phenoxy)pyrrolidin-1-yl)sulfonyl)benzonitrile]	7.00 to 8.00

Other lines, results leading:

pIC50	SMILES
8.00 to 10.00	N#Cc1ccc(O[C@H]2CN(S(=O)(=O)c3ccc(C(F)(F)F)cc3C#N)C[C@@]2(O)CO)cc1 [Example 29, 2-(((3R,4S)-4-(4-cyanophenoxy)-3-hydroxy-3-(hydroxymethyl)pyrrolidin-1-yl)sulfonyl)-5-(trifluoromethyl)benzonitrile]
8.00 to 10.00	N#Cc1cc(C(F)(F)F)ccc1S(=O)(=O)N1C[C@H](Oc2ccc(Cl)c(F)c2)[C@](O)(CO)C1 [Example 30, 2-(((3R,4S)-4-(4-chloro-3-fluorophenoxy)-3-hydroxy-3-(hydroxymethyl)pyrrolidin-1-yl)sulfonyl)-5-(trifluoromethyl)benzonitrile]
8.00 to 10.00	N#Cc1cc(C(F)(F)F)ccc1S(=O)(=O)N1C[C@H](Oc2ccc(C(F)(F)F)c(F)c2)[C@](O)(CO)C1 [Example 31, 2-(((3R,4S)-4-(3-fluoro-4-(trifluoromethyl)phenoxy)-3-hydroxy-3-(hydroxymethyl)pyrrolidin-1-yl)sulfonyl)-5-(trifluoromethyl)benzonitrile]
7.00 to 8.00	N#CCc1ccc(O[C@H]2CN(S(=O)(=O)c3ccc(C(F)(F)F)cc3C#N)C[C@@]2(O)CO)cc1 [Example 32, 2-(((3R,4S)-4-(4-(cyanomethyl)phenoxy)-3-hydroxy-3-(hydroxymethyl)pyrrolidin-1-yl)sulfonyl)-5-(trifluoromethyl)benzonitrile]
7.00 to 8.00	N#CCc1cccc(O[C@H]2CN(S(=O)(=O)c3ccc(C(F)(F)F)cc3C#N)C[C@@]2(O)CO)c1 [Example 33, 2-(((3R,4S)-4-(3-(cyanomethyl)phenoxy)-3-hydroxy-3-(hydroxymethyl)pyrrolidin-1-yl)sulfonyl)-5-(trifluoromethyl)benzonitrile]
8.00 to 10.00	COC(=O)c1cc(C#N)ccc1O[C@H]1CN(S(=O)(=O)c2ccc(C(F)(F)F)cc2C#N)C[C@@]1(O)CO [Example 34, methyl 5-cyano-2-(((3S,4R)-1-((2-cyano-4-(trifluoromethyl)phenyl)sulfonyl)-4-hydroxy-4-(hydroxymethyl)pyrrolidin-3-yl)oxy)benzoate]
7.00 to 8.00	O=S(=O)(c1ccc(Cl)cc1Cl)N1C[C@H](Oc2ccc(C(F)(F)F)nc2)[C@](O)(CO)C1 [Example 35, (3R,4S)-1-((2,4-dichlorophenyl)sulfonyl)-3-(hydroxymethyl)-4-((6-(trifluoromethyl)pyridin-3-yl)oxy)pyrrolidin-3-ol]
8.00 to 10.00	N#Cc1ncc(O[C@H]2CN(S(=O)(=O)c3ccc(Cl)cc3Cl)C[C@@]2(O)CO)cc1F [Example 36, 5-(((3S,4R)-1-((2,4-dichlorophenyl)sulfonyl)-4-hydroxy-4-(hydroxymethyl)pyrrolidin-3-yl)oxy)-3-fluoropicolinonitrile]
8.00 to 10.00	N#Cc1cc(C(F)(F)F)ccc1S(=O)(=O)N1C[C@H](Oc2ccc(C(F)(F)F)cc2)[C@](O)(CO)C1 [Example 37, 2-(((3R,4S)-3-hydroxy-3-(hydroxymethyl)-4-(4-(trifluoromethyl)phenoxy)pyrrolidin-1-yl)sulfonyl)-5-(trifluoromethyl)benzonitrile]
7.00 to 8.00	N#Cc1cc(C(F)(F)F)ccc1S(=O)(=O)N1C[C@H](Oc2ccc(F)c(C(F)(F)F)c2)[C@](O)(CO)C1 [Example 38, 2-(((3R,4S)-4-(4-fluoro-3-(trifluoromethyl)phenoxy)-3-hydroxy-3-(hydroxymethyl)pyrrolidin-1-yl)sulfonyl)-5-(trifluoromethyl)benzonitrile]
7.00 to 8.00	N#Cc1cc(C(F)(F)F)ccc1S(=O)(=O)N1C[C@H](Oc2ccc(Cl)c(Cl)c2)[C@](O)(CO)C1 [Example 39, 2-(((3R,4S)-4-(3,4-dichlorophenoxy)-3-hydroxy-3-(hydroxymethyl)pyrrolidin-1-yl)sulfonyl)-5-(trifluoromethyl)benzonitrile]
8.00 to 10.00	N#Cc1cc(C(F)(F)F)ccc1S(=O)(=O)N1C[C@H](Oc2ccc(OC(F)(F)F)c(F)c2)[C@](O)(CO)C1 [Example 40, 2-(((3R,4S)-4-(3-fluoro-4-(trifluoromethoxy)phenoxy)-3-hydroxy-3-(hydroxymethyl)pyrrolidin-1-yl)sulfonyl)-5-(trifluoromethyl)benzonitrile]
7.00 to 8.00	N#Cc1cc(C(F)(F)F)ccc1S(=O)(=O)N1C[C@H](Oc2ccc(F)c(Cl)c2)[C@](O)(CO)C1 [Example 41, 2-(((3R,4S)-4-(3-chloro-4-fluorophenoxy)-3-hydroxy-3-(hydroxymethyl)pyrrolidin-1-yl)sulfonyl)-5-(trifluoromethyl)benzonitrile]
8.00 to 10.00	CC(C)Oc1cc(C#N)ccc1O[C@H]1CN(S(=O)(=O)c2ccc(C(F)(F)F)cc2C#N)C[C@@]1(O)CO [Example 44, 2-(((3R,4S)-4-(4-cyano-2-isopropoxy-phenoxy)-3-hydroxy-3-(hydroxymethyl)pyrrolidin-1-yl)sulfonyl)-5-(trifluoromethyl)benzonitrile]
8.00 to 10.00	N#Cc1ccc(O[C@H]2CN(S(=O)(=O)c3ccc(C(F)(F)F)cc3C#N)C[C@@]2(O)CO)c(OC2CC2)c1 [Example 45, 2-(((3R,4S)-4-(4-cyano-2-cyclopropoxyphenoxy)-3-hydroxy-3-(hydroxymethyl)pyrrolidin-1-yl)sulfonyl)-5-(trifluoromethyl)benzonitrile]
8.00 to 10.00	N#Cc1cc(C(F)(F)F)ccc1S(=O)(=O)N1C[C@H](Oc2ccc(OC(F)(F)F)cc2)[C@](O)(CO)C1 [Example 50, 2-(((3R,4S)-3-hydroxy-3-(hydroxymethyl)-4-(4-(trifluoromethoxy)phenoxy)pyrrolidin-1-yl)sulfonyl)-5-(trifluoromethyl)benzonitrile]
